Activity calls are given as the source filed them. The rule behind the calls is not given here.
Assays:
[1] = biological target: Bromodomain-containing protein 4 (Homo sapiens, UniProt O60885); experiment: Inhibition of BRD4 BD1 (unknown origin) by TR-FRET assay
[2] = Cytotoxicity against human GES1 cells assessed as reduction in cell viability incubated for 72 hrs by MTT assay; format: toxicity, cell-based
HT-29 = experiment: Antiproliferative activity against human HT-29 cells assessed as reduction in cell viability incubated for 72 hrs by MTT assay; format: functional, cell-based; details: HT-29, 72 h
MCF7 = experiment: Antiproliferative activity against human MCF7 cells assessed as reduction in cell viability incubated for 72 hrs by MTT assay; format: functional, cell-based; details: MCF7, 72 h
HepG2 [3] = experiment: Antiproliferative activity against human HepG2 cells assessed as reduction in cell viability incubated for 72 hrs by MTT assay; format: functional, cell-based; details: HepG2, 72 h
HepG2 [4] = experiment: Induction of cell cycle arrest in human HepG2 cells assessed as accumulation at G0/G1 phase at 5 uM incubated for 24 hrs by flow cytometry (Rvb= 46.5%); format: functional
HepG2 [5] = experiment: Induction of cell cycle arrest in human HepG2 cells assessed as accumulation at S phase at 5 uM incubated for 24 hrs by flow cytometry (Rvb= 20.1%); format: functional
HepG2 [6] = experiment: Induction of apoptosis in human HepG2 cells assessed as late apoptotic cells at 5 uM incubated for 24 hrs by Annexin-V/PI staining based flow cytometry (Rvb=0.66%); format: functional
HepG2 [7] = experiment: Induction of apoptosis in human HepG2 cells assessed as viable cells at 5 uM incubated for 24 hrs by Annexin-V/PI staining based flow cytometry (Rvb=94.0%); format: functional; details: read-out: Activity
HepG2 [8] = experiment: Induction of apoptosis in human HepG2 cells assessed as total apoptotic cells at 5 uM incubated for 24 hrs by Annexin-V/PI staining based flow cytometry (Rvb=5.14%); format: functional
HepG2 [9] = experiment: Inhibition of c-myc expression in human HepG2 cells at 5 uM incubated for 24 hrs by Western blot analysis; format: functional, cell-based
HepG2 [10] = experiment: Induction of apoptosis in human HepG2 cells assessed as increase in p21 level at 2.5 uM incubated for 24 hrs by Western blot analysis; format: functional, cell-based
HepG2 [11] = experiment: Induction of apoptosis in human HepG2 cells assessed as early apoptotic cells at 5 uM incubated for 24 hrs by Annexin-V/PI staining based flow cytometry (Rvb=4.48%); format: functional
HepG2 [12] = experiment: Induction of cell cycle arrest in human HepG2 cells assessed as accumulation at G2/M phase at 5 uM incubated for 24 hrs by flow cytometry (Rvb= 14.05%); format: functional
HepG2 [13] = experiment: Induction of apoptosis in human HepG2 cells assessed as necrotic cells at 5 uM incubated for 24 hrs by Annexin-V/PI staining based flow cytometry (Rvb=0.85%); format: functional
HepG2 [14] = experiment: Induction of apoptosis in human HepG2 cells assessed as increase in cleaved caspase-3 level at 2.5 uM incubated for 24 hrs by Western blot analysis; format: functional, cell-based

Structure (SMILES) | IC50 [1] [µM] | IC50 at 72 h [2] [µM] | IC50 (HT-29) [µM] | IC50 (MCF7) [µM] | IC50 (HepG2 [3]) [µM] | further results
Cc1nc2cc(-c3cc(C(=O)N4CCN(C)CC4)ccc3Oc3ccc(F)cc3F)ccc2[nH]c1=O | 1.31 |  |  |  |  | 
Cc1nc2cc(-c3cc(NS(C)(=O)=O)ccc3Oc3ccc(Cl)cc3)ccc2[nH]c1=O | 0.341 | 18.1 | 8.09 | 4.64 | 11.3 | 
Cc1nc2cc(-c3cc(C(=O)NCCO)ccc3Oc3ccc(F)cc3F)ccc2[nH]c1=O | 0.621 | > 100 | 15.1 | > 50 | 17.9 | 
Cc1nc2cc(-c3cc(NS(C)(=O)=O)ccc3Oc3ccccc3C(F)(F)F)ccc2[nH]c1=O | 2.65 |  |  |  |  | 
CCS(=O)(=O)Nc1ccc(Oc2ccc(F)cc2F)c(-c2cn(C)c(=O)c3[nH]ccc23)c1 [MIVEBRESIB] | 0.0007 | 4.31 | 1.84 | 12.3 | 4.29 | Activity (HepG2 [4]): 56.2%; Activity (HepG2 [5]): 13.1%; Activity (HepG2 [6]): 2.81%; viability at 5 µM (HepG2 [7]): 63.6%; Activity (HepG2 [8]): 34.81%; inhibition (HepG2 [9]): Active; Activity (HepG2 [10]): Active; Activity (HepG2 [11]): 32%; Activity (HepG2 [12]): 19.6%; Activity (HepG2 [13]): 1.63%; Activity (HepG2 [14]): Active
Cc1nc2cc(-c3cc(C(C)O)ccc3Oc3ccc(F)cc3F)ccc2[nH]c1=O (stereo not given) | 0.406 | 30.8 | 20.2 | 34.5 | 33.5 | 
Cc1nc2cc(-c3cc(NS(C)(=O)=O)ccc3Oc3ccc(F)cc3)ccc2[nH]c1=O | 0.103 | 36.5 | 6.4 | 3.81 | 11.3 | 
Cc1nc2cc(-c3cc(CS(C)(=O)=O)ccc3Oc3ccc(F)cc3F)ccc2[nH]c1=O | 0.753 | 36.1 | 17.6 | > 50 | 22.9 | 
Cc1nc2cc(-c3cc(C(C)(C)O)ccc3Oc3ccc(F)cc3F)ccc2[nH]c1=O | 1.13 |  |  |  |  | 
Cc1ccccc1Oc1ccc(NS(C)(=O)=O)cc1-c1ccc2[nH]c(=O)c(C)nc2c1 | 2.12 |  |  |  |  | 
Cc1nc2cc(-c3cc(C=O)ccc3Oc3ccc(F)cc3F)ccc2[nH]c1=O | 2.51 |  |  |  |  | 
CCS(=O)(=O)Cc1ccc(Oc2ccc(F)cc2F)c(-c2ccc3[nH]c(=O)c(C)nc3c2)c1 | 0.777 | 45.8 | 25.1 | > 50 | > 50 | 
Cc1nc2cc(-c3cc(S(C)(=O)=O)ccc3Oc3ccc(F)cc3F)ccc2[nH]c1=O | 3.97 |  |  |  |  | 
Cc1nc2cc(-c3cc(NS(C)(=O)=O)ccc3Oc3ccc(F)cc3Cl)ccc2[nH]c1=O | 1.56 |  |  |  |  | 
COc1cc(Cl)ccc1Oc1ccc(NS(C)(=O)=O)cc1-c1ccc2[nH]c(=O)c(C)nc2c1 | 2.33 |  |  |  |  | 
Cc1nc2cc(-c3cc(C(=O)N4CCOCC4)ccc3Oc3ccc(F)cc3F)ccc2[nH]c1=O | 1.48 |  |  |  |  | 
CCc1nc2cc(-c3cc(NS(C)(=O)=O)ccc3Oc3ccc(F)cc3F)ccc2[nH]c1=O |  | 29.8 | 16.5 | 1.93 | 14.8 | 
COC(=O)c1ccc(Oc2ccc(F)cc2F)c(-c2ccc3[nH]c(=O)c(C)nc3c2)c1 | 4.22 |  |  |  |  | 
COc1ccccc1Oc1ccc(NS(C)(=O)=O)cc1-c1ccc2[nH]c(=O)c(C)nc2c1 | 2.83 |  |  |  |  | 
CCS(=O)(=O)Nc1ccc(Oc2ccc(F)cc2F)c(-c2ccc3[nH]c(=O)c(C)nc3c2)c1 | 0.0483 | 20.2 | 16.8 | 9.78 | 5.41 | 
Cc1nc2cc(-c3cc(NS(C)(=O)=O)ccc3Oc3ccc(F)cc3F)ccc2[nH]c1=O |  | 33.5 | 6.86 | 7.44 | 16.1 | 

Source: ChEMBL document CHEMBL5236660, “Design, synthesis, and biological evaluation of quinoxalinone derivatives as potent BRD4 inhibitors” (Bioorg Med Chem, 2023)
